Source: publication PMC5365645, “Preclinical Pharmacokinetics and Pharmacodynamic Target of SCY-078, a First-in-Class Orally Active Antifungal Glucan Synthesis Inhibitor, in Murine Models of Disseminated Candidiasis” (Antimicrobial Agents and Chemotherapy, 2017)
≈ marks a conversion by molar mass, not a printed value. Where “and” joins values, the source holds several entries; their conditions need not be identical. Identical values can stand only once.

What was measured:
in vivo = experiment: in vivo; parameters: species or system Wistar Han rats; conditions: Wistar Han, rat; for half-life: t1/2
Protocol: The pharmacokinetics and bioavailability of SCY-078 were evaluated in uninfected mouse, rat, and dog after p.o. and i.v. administration. The in vivo phases of the PK studies were performed at either […] (Waltham, MA) or MPI Research (Mattawan, MI) after an Institutional Animal Care and Use Committee (IACUC) review. […] and MPI Research are Association for Assessment and Accreditation of Laboratory Animal Care International (AAALAC)-approved facilities. […] The peak concentration (Cmax), the time to maximum concentration (Tmax), the half-life, and the AUC were determined from composite mean plasma concentration-time data for rodents and individual plasma concentration-time data for dogs. All doses and plasma concentrations of SCY-078 are presented as free base. Male and female Wistar Han rats (n = 3/sex/group/time point) weighing 0.329 to 0.398 kg (males) or 0.187 to 0.244 kg (females) received a single 5-mg/kg dose of SCY-078 as an i.v. injection in the lateral tail administered over 5 min or an oral dose of 20 mg/kg as described above. Blood specimens were collected from four animals/time point/group using a sparse sampling strategy via the sublingual vein at time intervals to 72 h postdosing and processed as described above.

logD = assay type: physicochemical
[1] = system: C. glabrata isolate CG 5592; parameters: method as in PMID 25512406; conditions: cited from earlier work
C. albicans MY1055 = experiment: Immediate treatment murine model of disseminated candidiasis
[2] = as above; conditions: DBA/2N, mouse, plasma, po
[3] = system: C. glabrata isolate CG 5592; parameters: method as in PMID 25512406; conditions: stasis ref 6; cited from earlier work
[4] = system: C. parapsilosis isolate CP 20519.069; parameters: method as in PMID 25512406; conditions: cited from earlier work
[5] = Plasma protein binding by equilibrium dialysis; assay type: in vitro ADME; conditions: pH 7.4
Protocol: Protein binding of [^3H]SCY-078 in mouse, rat, dog, and human plasma was determined by means of equilibrium dialysis and liquid scintillation counting. Tritium-labeled SCY-078 in ethanol was added to unlabeled SCY-078 in methanol to prepare stock solutions at 10, 100, and 1,000 μM SCY-078 with constant activity.
Protein binding was determined against isotonic phosphate-buffered saline (pH 7.4) at 37°C for 24 h. Aliquots (10 μl) of each stock solution were added to pooled DBA mouse (n = >10 animals), Sprague-Dawley rat, beagle dog, or human plasma (1 ml) to achieve final total concentrations of 0.1, 1, and 10 μM SCY-078. The final concentration of the organic solvent was 0.9% (vol/vol). Dialysis was performed in 1-ml acrylic dialysis cells (Scienceware, South Wayne, NJ), where plasma and buffer were separated by a 12.4-kDa cutoff membrane (Sigma, St. Louis, MO). After incubation, aliquots (100 μl) of plasma and phosphate buffer were counted for radioactivity (Beckman LS6500 liquid scintillation counter), and unbound fractions of SCY-078 were estimated based on the following calculation: unbound fraction = radioactivity (dpm/0.1 ml) in buffer/total radioactivity (dpm/0.1 ml) in plasma.

[6] = Study A, 6.25 mg/kg p.o. BID, day 7
[7] = Study A, 12.5 mg/kg p.o. BID, day 7
[8] = Study A, Efficacious: projected assuming linearity
[9] = Study B, 6.25 mg/kg p.o. BID, day 7
[10] = Study B, 12.5 mg/kg p.o. BID, day 7
[11] = Study B, Efficacious: projected assuming linearity
[12] = Study C, 6.25 mg/kg p.o. BID, day 7

**Q.** Which results are given for CC(C)[C@@H](C)[C@@]1(C)CC[C@]2(C)[C@H]3CC[C@@H]4[C@@]5(COC[C@@]4(C)[C@@H](OC[C@](C)(N)C(C)(C)C)[C@H](n4ncnc4-c4ccncc4)C5)C3=CC[C@@]2(C)[C@@H]1C(=O)O [SCY-078, (1S,4aR,6aS,7R,8R,10aR,10bR,12aR,14R,15R)-15-[[(2R)-2-amino-2,3,3-trimethylbutyl]oxy]-8-[(1R)-1,2-dimethylpropyl]-14-[5-(4-pyridinyl)-1H-1,2,4-triazol-1-yl]-1,6,6a,7,8,9,10,10a,10b,11,12,12a-dodecahydro-1,6a,8,10a-tetramethyl-4H-1,4a-propano-2H-phenanthro[1,2-c]pyran-7-carboxylic acid]?
**A.** AUC(0-inf) (in vivo; both sexes, iv, 5 mg/kg): 11700 ng·h/mL; AUC(0-t) (in vivo; both sexes, iv, 5 mg/kg): 10300 ng·h/mL; Vd (in vivo; both sexes, iv, 5 mg/kg): 4.7 L/kg; clearance (in vivo; both sexes, iv, 5 mg/kg): 7.33 mL/min/kg; half-life (in vivo; both sexes, iv, 5 mg/kg): ~8.7 h; AUC(0-inf) (in vivo; both sexes, po, 20 mg/kg): 20800 ng·h/mL; AUC(0-t) (in vivo; both sexes, po, 20 mg/kg): 16400 ng·h/mL; Cmax (in vivo; both sexes, po, 20 mg/kg): 1010 ng/mL; Tmax (in vivo; both sexes, po, 20 mg/kg): 8 h; bioavailability (in vivo; both sexes, po, 20 mg/kg, Bioavailability): ~45%; half-life (in vivo; both sexes, po, 20 mg/kg): ~9.1 h; Dose normalized AUC0–∞ to a 1-mg/kg dose (in vivo; both, iv): ~2.4 µg·h/mL; t1/2 (in vivo; both, iv, 5 mg/kg): 8.7 h; logD (logD; at PI): 4.9; logD (logD; pH 7.3): ~6.4; MIC [1]: 0.25 µg/mL (≈ 0.342 µM); Kidney tissue burden (C. albicans MY1055; [6]): 2.78 log10 CFU/g of tissue; Reduction from sham treatment (C. albicans MY1055; [6]): 3.69 log10 CFU/g of tissue; % animals sterilized (C. albicans MY1055; Study A, 6.25 mg/kg p.o. BID, day 7, five animals per group): 40%; Kidney tissue burden (C. albicans MY1055; [7]): 2.23 log10 CFU/g of tissue; Reduction from sham treatment (C. albicans MY1055; [7]): 4.24 log10 CFU/g of tissue; % animals sterilized (C. albicans MY1055; Study A, 12.5 mg/kg p.o. BID, day 7, five animals per group): 80%; % animals sterilized (C. albicans MY1055; [8]): 60%; Kidney tissue burden (C. albicans MY1055; [8]): 2.51 log10 CFU/g of tissue; Reduction from sham treatment (C. albicans MY1055; [8]): 4 log10 CFU/g of tissue; Kidney tissue burden (C. albicans MY1055; [9]): 3.52 log10 CFU/g of tissue; Reduction from sham treatment (C. albicans MY1055; [9]): 3.35 log10 CFU/g of tissue; % animals sterilized (C. albicans MY1055; Study B, 6.25 mg/kg p.o. BID, day 7, five animals per group): 0%; Kidney tissue burden (C. albicans MY1055; [10]): 2.2 log10 CFU/g of tissue; Reduction from sham treatment (C. albicans MY1055; [10]): 4.67 log10 CFU/g of tissue; % animals sterilized (C. albicans MY1055; Study B, 12.5 mg/kg p.o. BID, day 7, five animals per group): 100%; % animals sterilized (C. albicans MY1055; [11]): 50%; Kidney tissue burden (C. albicans MY1055; [11]): 2.86 log10 CFU/g of tissue; Reduction from sham treatment (C. albicans MY1055; [11]): 4.01 log10 CFU/g of tissue; Kidney tissue burden (C. albicans MY1055; [12]): 2.61 log10 CFU/g of tissue; Reduction from sham treatment (C. albicans MY1055; [12]): 4.35 log10 CFU/g of tissue; % animals sterilized (C. albicans MY1055; Study C, 6.25 mg/kg p.o. BID, day 7, five animals per group): 60%; Free-drug (f) AUC0–24 (C. albicans MY1055; efficacy target, fraction bound 99.8% in mouse plasma): 0.0224 ± 0.0032 µg·h/mL; Mean therapeutic exposure (plasma AUC0–24) across all models (C. albicans MY1055; mean of immediate-treatment, delayed-single-dose and delayed-fractionated-dose models): 14.3 µM·h; AUC(0-t) ([2]; 6.25 mg/kg, Plasma AUC0–24, Study A, 6.25 mg/kg p.o. BID, after dose 13 day 7): 6190 ng·h/mL and 8.48 µM·h; AUC(0-t) ([2]; 6.25 mg/kg, Plasma AUC0–24, Study B, 6.25 mg/kg p.o. BID, after dose 13 day 7): 3270 ng·h/mL and 4.48 µM·h; AUC(0-t) ([2]; 6.25 mg/kg, Plasma AUC0–24, Study C, 6.25 mg/kg p.o. BID, after dose 13 day 7): 11000 ng·h/mL and 15.1 µM·h; AUC(0-t) ([2]; 12.5 mg/kg, Plasma AUC0–24, Study A, 12.5 mg/kg p.o. BID, after dose 13 day 7): 19700 ng·h/mL and 27 µM·h; AUC(0-t) ([2]; 12.5 mg/kg, Plasma AUC0–24, Study B, 12.5 mg/kg p.o. BID, after dose 13 day 7): 16200 ng·h/mL and 22.2 µM·h; AUC(0-t) ([2]; Plasma AUC0–24, Study A, Efficacious: projected efficacious exposure assuming linearity): 12900 ng·h/mL and 17.7 µM·h; AUC(0-t) ([2]; Plasma AUC0–24, Study B, Efficacious: projected efficacious exposure assuming linearity): 9710 ng·h/mL and 13.3 µM·h; Total drug AUC0–24 target [3]: ~18.8 µM·h; MIC [4]: 0.25 µg/mL (≈ 0.342 µM); fraction unbound at 24 h ([5]; DBA, mouse plasma): 0.002; fraction unbound at 24 h, 0.1 μM ([5]; DBA, mouse plasma): 0.002; fraction unbound at 24 h, 1 μM ([5]; DBA, mouse plasma): 0.002; fraction unbound at 24 h, 10 μM ([5]; DBA, mouse plasma): 0.002; fraction unbound at 24 h, 0.1 μM ([5]; Sprague-Dawley, rat plasma): 0.002; fraction unbound at 24 h, 1 μM ([5]; Sprague-Dawley, rat plasma): 0.003; fraction unbound at 24 h, 10 μM ([5]; Sprague-Dawley, rat plasma): 0.002; fraction unbound at 24 h, 0.1 μM ([5]; beagle, dog plasma): 0.004; fraction unbound at 24 h, 1 μM ([5]; beagle, dog plasma): 0.005; fraction unbound at 24 h, 10 μM ([5]; beagle, dog plasma): 0.003; fraction unbound at 24 h, 0.1 μM ([5]; human plasma): 0.002; fraction unbound at 24 h, 1 μM ([5]; human plasma): 0.003; fraction unbound at 24 h, 10 μM ([5]; human plasma): 0.004
